Values of other authors in patent publication US20120157405A1, “Methods and Compositions for the Treatment of "Burning Feet Syndrome"” (priority 2010, published 2012).
Where two headings read alike, the source gives them in different places.

Columns and labels:
[1] = system: sciatic pain caused by herniated disc
vitamin B12 deficiency = details: oral supplementation only
[2] = system: painful peripheral diabetic neuropathy; details: 320 mg/day compared to 150 mg/day, over 6 weeks
[3] = system: severe diabetic peripheral neuropathy
[4] = system: symptomatic diabetic polyneuropathy; details: symptomatic diabetic polyneuropathy and compressive radiculopathy syndrome from disc-nerve root conflict
neuropathic pain = details: double-blind study
diabetic neuropathy [5] = details: double-blind trial
[6] = system: symptomatic diabetic polyneuropathy
[7] = system: jejunal transport of water, Na and Cl; details: in vivo jejunal perfusion
[8] = system: Diabetes-Induced Oxidative Stress In Gastrointestinal Tissues; details: exogenously administered, diabetic rats
mild diabetic neuropathy = details: 480 mg daily, after 12 months
skin irritation = details: topical adjunct skin care
[9] = system: complications among the major targets of diabetes; details: in vivo
“Burning Feet Syndrome” [10] = details: 53 cases; parenteral calcium pantothenate given after the other vitamins
peripheral neuropathy = details: daily high-dose supplementation for two years, person
[11] = system: nerve conduction and function; details: 900 mg, six-month study
“Burning Feet Syndrome” [12] = details: 6 mg intramuscular injections
[13] = system: peripheral neuropathy symptoms; details: niacin alone
[14] = system: neuropathy associated with diabetes
[15] = system: neuropathy associated with some chemotherapy drugs; details: two studies
diabetic neuropathy [16] = details: over a one-year period
[17] = system: chemically induced diabetic rats
[18] = system: cardiac autonomic neuropathy; details: people with diabetes
diabetic neuropathy [19] = details: animal studies
[20] = system: streptozotocin-induced diabetic rats; details: 1.4 to 1.5 g/kg body weight, 7 weeks
[21] = after one year of treatment, all patients

O=C(O)CCCCC1CCSS1 (centres unmarked) [Thioctic acid]
treatment of sciatic pain [1]: appears to be effective

vitamin B12
patients with low B12 levels whose deficiency was corrected (vitamin B12 deficiency): ~50%

C/C(=C(\CCOP(=O)(O)O)SC(=O)c1ccccc1)N(C=O)Cc1cnc(C)nc1N [benfotiamine]
therapeutic effectiveness [2]: most effective in large doses | alcoholic polyneuropathy (alcoholic polyneuropathy; benfotiamine versus combination with vitamin B6 and B12): significant improvement | adverse effects (alcoholic polyneuropathy; double-blind study): no therapy-specific adverse effects | pain and co-ordination (alcoholic polyneuropathy; double-blind study): improvement was evident

O=C(O)CCCC[C@@H]1SC[C@@H]2NC(=O)N[C@@H]21 [biotin]
paresthesias [3, 21]: free of paresthesias | walking distance without help [3, 21]: more than 300 meters | symptoms of peripheral neuropathy ([3]; within four to eight weeks after biotin administration): objective improvement

O=C(O)CCCCC1CCSS1 (stereo not drawn) [Alpha-lipoic acid]
acute microcirculation occlusion (microcirculation; in vivo): significantly improve | microcirculation (microcirculation; patients with diabetic polyneuropathy): significant improvement in microcirculation | pain, paresthesia, and numbness [4]: reduced the pain, paresthesia, and numbness | nerve functionality and neuropathic pain (neuropathic pain): helped the recovery of nerve functionality and decrease neuropathic pain | sensory symptoms and pain of diabetic neuropathy (diabetic neuropathy [5]): rapidly and significantly reduces sensory symptoms and pain of diabetic neuropathy | time at which TSS improvement was noted ([6]; oral 600 milligrams and 1200 milligrams): 2 weeks | side effects ([6]; oral 600 to 1800 milligrams): dose-dependent increase in the incidence of nausea | time at which TSS improvement was noted ([6]; oral 1800 milligrams): the end of the first week | Total Symptom Score (TSS) ([6]; oral therapy, 600 to 1800 milligrams): significant improvement

N=C(N)NCCC[C@H](N)C(=O)O [L-arginine]
jejunal transport of water, Na and Cl [7]: dose-dependent pro-secretor effect | oxidative stress in the gastrointestinal tract [8]: decrease the oxidative stress in the gastrointestinal tract

CCCCC/C=C\C/C=C\C/C=C\CCCCC(=O)O [GLA, gamma linolenic acid]
outcome versus placebo group (mild diabetic neuropathy): significantly better than the placebo group

CC(C)(CO)[C@@H](O)C(=O)NCCCO [dexpanthenol]
symptoms of skin irritation (dryness, roughness, scaling, pruritus, erythema, erosion/fissure) (skin irritation): considerably improves symptoms of skin irritation

COc1cc(/C=C/C(=O)CC(=O)/C=C/c2ccc(O)c(OC)c2)ccc1O [curcumin]
intracellular superoxide anion (O2) production (DM arterioles; DM arterioles, hydroethidine probe, low or high doses): significantly reduced | diabetes-induced vascular PKC-β11 expression (DM arterioles; high dose): diminished | Acetylcholine (ACh) responses (DM arterioles; low and high doses (30 and 300 mg/kg)): significantly improved

NCCS(=O)(=O)O [taurine]
severity of complications of diabetes (retina, neuron, kidney) [9]: diminishes the severity of complications

calcium pantothenate
outcome of treatment of “Burning Feet Syndrome” (“Burning Feet Syndrome” [10]): cure

vitamin E
disease progression and neuropathy (peripheral neuropathy): slowed disease progression and produced significant improvement in their neuropathy | nerve conduction [11]: mild to moderate defective nerve conduction was improved

Cc1ncc(C[n+]2csc(CCO)c2C)c(N)n1 [thiamine]
outcome of treatment of “Burning Feet Syndrome” (“Burning Feet Syndrome” [10]): failed

Cc1cc2nc3c(=O)[nH]c(=O)nc-3n(C[C@H](O)[C@H](O)[C@H](O)CO)c2cc1C [riboflavin]
adverse reactions (“Burning Feet Syndrome” [12]): no reported adverse reactions | time until the burning pain subsided (“Burning Feet Syndrome” [12]): ≤ 3 days | outcome of treatment of “Burning Feet Syndrome” (“Burning Feet Syndrome” [10]): failed

O=C(O)c1cccnc1 [niacin]
peripheral neuropathy symptoms [13]: does not help peripheral neuropathy symptoms

CC(=O)O[C@H](CC(=O)[O-])C[N+](C)(C)C [acetyl-L-carnitine]
sural nerve fiber numbers and regenerating nerve fiber clusters ([14]; 52 weeks): significant improvement | vibratory perception ([14]; both studies): improved | pain ([14]; daily doses of 500 mg and 1000 mg, 52 weeks): significant reductions in pain | effects on glucose, insulin, or free fatty acids levels (diabetic animals; diabetic animals): without any adverse effects | nerve conduction velocity (diabetic animals; diabetic animals): maintained near normal nerve conduction velocity | nerve regeneration (diabetic animals; diabetic nerve degeneration and neuropathy, after experimental injury): accelerated nerve regeneration | chemotherapy-associated neuropathy [15]: can limit the neuropathy | nerve conduction velocity and pain (diabetic neuropathy [16]): improved nerve conduction velocity and reduced pain | nerve dysfunctions [17]: A number of nerve dysfunctions were corrected | cardiac autonomic neuropathy [18]: appeared to help prevent or slow cardiac autonomic neuropathy

CC(=O)N[C@@H](CS)C(=O)O [NAC, N-Acetylcysteine]
neuropathy (diabetic neuropathy [19]): can inhibit diabetic neuropathy and protect against neuropathies caused by chemotherapy drugs | effect on diabetic neuropathy [20]: protective effects

O=C(O)c1cccnc1 [nicotinic acid]
outcome of treatment of “Burning Feet Syndrome” (“Burning Feet Syndrome” [10]): failed
